Like-named read-outs stand apart in the source and are kept apart here.
System: ZR75 cells
Experiment: 3H-thymidine incorporation (DNA synthesis) / proliferation of ZR75 cells, estrogen-like activity
Assay type: cell-based, human
Conditions: for activity at 0.001 µM / activity at 0.01 µM / activity at 0.1 µM / activity at 1 µM: Homo sapiens, control water; for activity at 0.001 µM: 1 nM; for activity at 0.01 µM: 10 nM; for activity at 0.1 µM: 100 nM; for activity at 1 µM: 1000 nM, read-out: DNA synthesis (% of Control)
Text: The following test was employed to determine whether resveratrol has an estrogen-like activity:
The ZR75 cell line is a ductal breast carcinoma cell line, originally isolated from malignant mammary epithelium of a person (Engel et al., Human breast carcinoma cells in continuous culture: A review., Cancer Res., 38: 4327-4339, 1978). This cell line contains receptors for estrogen, progesterone and other steroid hormones, but responds through an increase in proliferation only to estrogen. The cell line contains high affinity estrogen-specific receptors. Therefore, this cell line is used for testing estrogen-like activity (Markiewicz et al., In vitro bioassays of non-steroidal phytoestrogens, J. Steroid Biochem. Molec. Biol., 45: 399-405, 1993)
Methodology Used for Determining the Rate of DNA Synthesis in Cells
The incorporation of ^3 H-thymidine by cultured cells was used as an assay of cell proliferation (both for ZR75 cells and for keratinocytes). Thymidine is one of four deoxynucleosides which are the monomeric units of DNA. Prior to cell division of a somatic cell, the complete genome of the cell undergoing cell division is replicated. This involves large scale DNA synthesis by the cell and enables both daughter cells to receive identical copies of the genetic material. When ^3 H-thymidine is included in the culture media of cells which are synthesizing DNA in preparation for cell division then the labeled thymidine is incorporated into the newly synthesized DNA. The extent of incorporation of ^3 H-thymidine into a population of cells is proportional to the rate of DNA synthesis by this population of cells and therefore an indication of their cellular proliferation.
ZR75 cells (from American Type Culture Collection, Rockville, Md.) were grown in RPMI1640 media (from Gibco Life Technologies) with 10% fetal bovine serum (FBS) , 100 units penicillin per ml and 100 units of streptomycin per ml. All incubations were performed at 37° C. in 5% CO2. […] The cells were seeded at a density of one million per 75 cm2 flask. For the experiment, the cells were seeded in 24 well plates at 100,000 cells per ml per well.
After growing for 24 hours, the media was removed, the cells were washed with PBS (phosphate buffered saline, 0.01 M sodium phosphate, 0.138 M sodium chloride, 0.0027 M potassium chloride, pH 7.4) and 1 ml of RPMI 1640 without serum (but with streptomycin and penicillin) was added. Stock solutions of resveratrol in dimethyl sulfoxide (DMSO) and estradiol in water were prepared. […] After another 24 hours, one μCi of [methyl-3H] thymidine was added to each well. The media was removed after 24 hours. The cells were washed once in PBS, the PBS was removed completely and the cells were left on ice to incubate with 1 ml per well of 10% TCA (trichloroacetic acid) for 30 minutes. The plates were washed 3 times with 5% TCA to remove all traces of thymidine which wasn't incorporated into the cells. 500 μl of 0.1M sodium hydroxide was added to each well and the plates were incubated at room temperature for at least 30 minutes. 250 μl of each sample was transferred to scintillation vials and after adding 5 mL of counting fluid, the vials were counted for 5 minutes each on a setting for tritium. […] Values were expressed as mean of quadruplicate wells +/- standard deviation.

Work on C[C@]12CC[C@@H]3c4ccc(O)cc4CC[C@H]3[C@@H]1CC[C@@H]2O [Estradiol, estradiol, reference compound] yielded an activity at 0.001 µM (ZR75, EXPT 1) of 220 ± 11%, an activity at 0.01 µM (ZR75, EXPT 1) of 210 ± 9.7% and an activity at 0.1 µM (ZR75, EXPT 1) of 205 ± 15.6%. For the same compound, the activity at 1 µM (ZR75, EXPT 1) was 190 ± 24.5%, the activity at 0.001 µM (ZR75, EXPT 2) was 133 ± 29% and the activity at 0.01 µM (ZR75, EXPT 2) was 152 ± 17.7%. For the same compound, the activity at 0.1 µM (ZR75, EXPT 2) was 156 ± 11.7%, the activity at 1 µM (ZR75, EXPT 2) was 142 ± 18.3% and the “proliferation of ZR 75 cells” value (Table 1 summary) was “stimulated proliferation of ZR 75 cells”.

Source: patent US6270780A, “Cosmetic compositions containing resveratrol” (Chesebrough-Pond's USA Co., division of Conopco, priority 1998, dated 2001)
